Experiments:
[1] = molecular target: Melanocortin receptor 5 (Homo sapiens, UniProt P33032); assay type: cell membranes, HEK293, Membrane; conditions: hek293; note: in other assays of this panel Not Active means under 50% inhibition at 10 µM
[2] = molecular target: T1, Alpha-1A adrenergic receptor (Rattus norvegicus, UniProt P43140); assay: DRUGMATRIX: Alpha-1A adrenergic receptor radioligand binding (ligand: prazosin); assay type: cell membranes, Wistar, Submaxillary gland, Membrane; conditions: Not Active = under 50% inhibition at 10 µM
T1 sequence (P43140 whole entry): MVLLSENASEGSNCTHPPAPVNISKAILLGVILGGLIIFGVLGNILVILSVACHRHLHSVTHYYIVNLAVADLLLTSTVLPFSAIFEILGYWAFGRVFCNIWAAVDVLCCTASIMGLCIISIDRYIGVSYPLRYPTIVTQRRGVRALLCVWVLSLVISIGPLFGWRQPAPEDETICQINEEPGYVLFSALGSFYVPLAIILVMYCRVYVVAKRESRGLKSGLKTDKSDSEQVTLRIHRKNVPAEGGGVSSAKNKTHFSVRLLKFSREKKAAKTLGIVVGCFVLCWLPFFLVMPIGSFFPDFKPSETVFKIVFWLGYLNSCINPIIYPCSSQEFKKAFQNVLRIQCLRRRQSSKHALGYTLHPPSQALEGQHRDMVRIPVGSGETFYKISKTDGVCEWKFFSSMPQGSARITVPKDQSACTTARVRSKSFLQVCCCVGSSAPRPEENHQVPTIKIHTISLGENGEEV

[3] = molecular target: Nitric oxide synthase 1 (Rattus norvegicus, UniProt P29476); assay type: tissue-based, Cerebellum; note: in other assays of this panel Not Active means under 50% inhibition at 10 µM
[4] = DRUGMATRIX: GABAA, Flunitrazepam, Central radioligand binding (ligand: [3H] Flunitrazepam); assay type: cell membranes, Rattus norvegicus, Wistar, Brain, Membrane; conditions: Not Active = under 50% inhibition at 10 µM
[5] = molecular target: Epidermal growth factor receptor (Homo sapiens, UniProt P00533); assay: DRUGMATRIX: Protein Tyrosine Kinase, EGF Receptor enzyme inhibition (substrate: Poly(Glu:Tyr)); assay type: cell-based, Insect cells; conditions: Not Active = under 50% inhibition at 10 µM
[6] = molecular target: Delta-type opioid receptor (Homo sapiens, UniProt P41143); assay type: cell membranes, Membrane; conditions: hek293; note: in other assays of this panel Not Active means under 50% inhibition at 10 µM
Delta-type opioid receptor, sequence (P41143 whole entry): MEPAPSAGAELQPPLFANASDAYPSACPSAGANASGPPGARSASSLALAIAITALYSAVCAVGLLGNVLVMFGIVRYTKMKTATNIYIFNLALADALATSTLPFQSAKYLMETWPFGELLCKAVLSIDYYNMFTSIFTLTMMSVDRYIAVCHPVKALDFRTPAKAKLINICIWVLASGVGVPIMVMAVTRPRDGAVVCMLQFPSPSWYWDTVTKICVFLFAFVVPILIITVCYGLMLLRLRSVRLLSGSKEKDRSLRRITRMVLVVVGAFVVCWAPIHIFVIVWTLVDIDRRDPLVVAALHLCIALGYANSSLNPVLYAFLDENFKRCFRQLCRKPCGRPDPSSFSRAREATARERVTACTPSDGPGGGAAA

Nitric oxide synthase 1, sequence (P29476 whole entry): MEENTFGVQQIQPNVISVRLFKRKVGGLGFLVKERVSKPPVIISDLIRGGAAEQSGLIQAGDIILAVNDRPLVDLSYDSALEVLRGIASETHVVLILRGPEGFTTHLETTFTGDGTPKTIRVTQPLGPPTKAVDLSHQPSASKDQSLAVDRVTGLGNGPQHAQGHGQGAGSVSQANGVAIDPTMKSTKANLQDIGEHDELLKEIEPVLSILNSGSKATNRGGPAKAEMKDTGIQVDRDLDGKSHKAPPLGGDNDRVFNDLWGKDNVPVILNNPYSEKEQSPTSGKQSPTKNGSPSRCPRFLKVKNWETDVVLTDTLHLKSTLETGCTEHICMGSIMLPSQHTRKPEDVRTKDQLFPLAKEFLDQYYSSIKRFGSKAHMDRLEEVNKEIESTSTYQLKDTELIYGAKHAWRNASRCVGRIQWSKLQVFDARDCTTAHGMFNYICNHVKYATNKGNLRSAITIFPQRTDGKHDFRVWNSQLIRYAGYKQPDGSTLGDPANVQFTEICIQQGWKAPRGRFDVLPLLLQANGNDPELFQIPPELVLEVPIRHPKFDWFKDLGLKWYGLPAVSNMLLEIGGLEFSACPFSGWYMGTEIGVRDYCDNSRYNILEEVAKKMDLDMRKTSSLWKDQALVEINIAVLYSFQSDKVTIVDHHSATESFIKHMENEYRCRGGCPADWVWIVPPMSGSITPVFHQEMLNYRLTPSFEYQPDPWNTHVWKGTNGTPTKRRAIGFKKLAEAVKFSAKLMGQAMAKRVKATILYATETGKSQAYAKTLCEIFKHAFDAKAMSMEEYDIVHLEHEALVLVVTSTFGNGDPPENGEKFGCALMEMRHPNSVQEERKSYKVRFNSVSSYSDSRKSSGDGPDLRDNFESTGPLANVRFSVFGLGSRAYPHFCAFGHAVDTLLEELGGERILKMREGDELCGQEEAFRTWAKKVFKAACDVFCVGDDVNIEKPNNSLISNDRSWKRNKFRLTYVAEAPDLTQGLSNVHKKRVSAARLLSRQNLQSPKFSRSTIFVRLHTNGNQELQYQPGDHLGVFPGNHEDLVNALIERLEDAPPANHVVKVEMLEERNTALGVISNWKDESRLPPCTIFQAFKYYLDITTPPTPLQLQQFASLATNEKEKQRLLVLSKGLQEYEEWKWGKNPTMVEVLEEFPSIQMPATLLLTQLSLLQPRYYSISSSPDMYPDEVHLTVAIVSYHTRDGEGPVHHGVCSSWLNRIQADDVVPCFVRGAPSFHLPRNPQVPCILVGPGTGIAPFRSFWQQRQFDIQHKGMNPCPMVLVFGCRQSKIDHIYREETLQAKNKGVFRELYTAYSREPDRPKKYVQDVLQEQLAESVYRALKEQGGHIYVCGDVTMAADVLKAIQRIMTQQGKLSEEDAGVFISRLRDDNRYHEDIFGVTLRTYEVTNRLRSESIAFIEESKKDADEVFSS
Melanocortin receptor 5, sequence (P33032 whole entry): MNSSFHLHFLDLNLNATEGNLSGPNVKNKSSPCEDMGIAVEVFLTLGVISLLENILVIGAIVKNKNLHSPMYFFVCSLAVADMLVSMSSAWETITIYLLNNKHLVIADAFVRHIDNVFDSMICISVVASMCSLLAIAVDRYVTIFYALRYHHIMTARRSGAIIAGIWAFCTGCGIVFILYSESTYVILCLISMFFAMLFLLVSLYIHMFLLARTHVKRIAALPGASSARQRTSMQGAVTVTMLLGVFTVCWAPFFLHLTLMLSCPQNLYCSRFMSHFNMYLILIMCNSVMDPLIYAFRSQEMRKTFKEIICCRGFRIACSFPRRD

| Compound | IC50 [1] | IC50 [2] | IC50 [3] | IC50 [4] | Ki [4] | IC50 ([5]; insect cells) | IC50 [6] | IC50 ([5]; read-out: IC50) | Ki [1] | Ki [2] | Ki [3] | Ki ([5]; insect cells) | Ki [6] |
| --- | --- | --- | --- | --- | --- | --- | --- | --- | --- | --- | --- | --- | --- |
| CC(C)NCC(O)c1ccc(NS(C)(=O)=O)cc1 (stereo not given) [SOTALOL] | Not Active | Not Active | Not Active | Not Active | Not Active | Not Active | Not Active |  |  |  |  |  |  |
| O.O.O.O.O.O.[Cl-].[Cl-].[Sr+2] [STRONTIUM CHLORIDE HEXAHYDRATE] | Not Active | Not Active | Not Active | Not Active | Not Active | Not Active | Not Active |  |  |  |  |  |  |
| O=C1C(CC[S+]([O-])c2ccccc2)C(=O)N(c2ccccc2)N1c1ccccc1 (stereo not given) [SULFINPYRAZONE] | Not Active | Not Active | Not Active | Not Active | Not Active | Not Active | Not Active |  |  |  |  |  |  |
| NC(=O)N1C(=O)/C(=C(\O)c2cccs2)c2cc(Cl)ccc21 [TENIDAP] | Not Active | Not Active | Not Active | Not Active | Not Active | Not Active | Not Active |  |  |  |  |  |  |
| CN(C/C=C/C#CC(C)(C)C)Cc1cccc2ccccc12 [TERBINAFINE] | Not Active | Not Active | Not Active | Not Active | Not Active | Not Active | Not Active |  |  |  |  |  |  |
| CCCCNc1ccc(C(=O)OCCN(C)C)cc1 [TETRACAINE] | Not Active | Not Active | Not Active | Not Active | Not Active | Not Active | Not Active |  |  |  |  |  |  |
| Cn1c(=O)c2nc[nH]c2n(C)c1=O.O [THEOPHYLLINE] | Not Active | Not Active | Not Active | Not Active | Not Active | Not Active | Not Active |  |  |  |  |  |  |
| CS(=O)(=O)c1ccc([C@@H](O)[C@@H](CO)NC(=O)C(Cl)Cl)cc1 [THIAMPHENICOL] | Not Active | Not Active | Not Active | Not Active | Not Active | Not Active | Not Active |  |  |  |  |  |  |
| CCN(CC)CCNC(=O)c1cc(S(C)(=O)=O)ccc1OC [TIAPRIDE] | Not Active | Not Active | Not Active | Not Active | Not Active | Not Active | Not Active |  |  |  |  |  |  |
| Clc1ccccc1CN1CCc2sccc2C1 [TICLOPIDINE] | Not Active | Not Active | Not Active | Not Active | Not Active | Not Active | Not Active |  |  |  |  |  |  |
| NC1CCN(c2nc3c(cc2F)c(=O)c(C(=O)O)cn3-c2ccc(F)cc2F)C1 (stereo not given) [TOSUFLOXACIN] | Not Active | Not Active | Not Active | Not Active | Not Active | Not Active | Not Active |  |  |  |  |  |  |
| O=C(Nc1ccc(Br)cc1)c1cc(Br)cc(Br)c1O [TRIBROMSALAN] | Not Active | Not Active | Not Active | Not Active | Not Active |  | Not Active | 2990 nM |  |  |  |  |  |
| CC(c1cc2ccccc2s1)N(O)C(N)=O (stereo not given) [ZILEUTON] | Not Active | Not Active | Not Active | Not Active | Not Active | Not Active | Not Active |  |  |  |  |  |  |
| MANGANESE CHLORIDE ANHYDROUS | Not Active | Not Active | Not Active | Not Active | Not Active | Not Active | Not Active |  | Not Active | Not Active | Not Active | Not Active | Not Active |
| SODIUM ORTHOVANAD | Not Active | Not Active | Not Active | Not Active | Not Active | Not Active | Not Active |  | Not Active | Not Active | Not Active | Not Active | Not Active |

— ChEMBL document CHEMBL1909046, “DrugMatrix in vitro pharmacology data”
